Where two headings read alike, the source gives them in different places.
Key:
His6-TEV-PPARγ-(234-505) = target: T1, His6-TEV-PPARγ-(234-505) (Homo sapiens, UniProt P37231); assay: TR-FRET Assay to Measure Co-R Peptide Recruitment to PPARγ; type: biochemical; details: Co-R peptide (SMRT-ID2) recruitment, top final concentration 20 μM, read-out: TR-FRET i-Ag, AC50
T1 construct: The His6-TEV-PPARγ-(234-505) protein for assay was expressed and purified; TEV cleavage site (N); made in house
T1 sequence (P37231 234-505): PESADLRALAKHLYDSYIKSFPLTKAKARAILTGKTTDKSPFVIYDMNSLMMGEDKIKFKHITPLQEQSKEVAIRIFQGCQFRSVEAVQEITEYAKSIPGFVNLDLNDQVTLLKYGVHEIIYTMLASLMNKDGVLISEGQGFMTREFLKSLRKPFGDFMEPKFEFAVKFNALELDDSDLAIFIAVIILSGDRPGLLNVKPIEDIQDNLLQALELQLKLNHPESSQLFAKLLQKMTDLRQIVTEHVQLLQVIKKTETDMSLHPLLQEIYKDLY
Procedure, shortened: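 His-tagged PPARγ (or controls) was preincubated with compound for 20 minutes at room temperature, then 5 nM anti-His terbium antibody and 200 nM FITC-labeled SMRT-ID2 corepressor peptide (final) were added for a further hour. TR-FRET signal was normalized to percent response using 500 nM T0070907 and DMSO controls.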

UM-UC-9 engineered cells = assay: Cell proliferation / short-term viability assay, CellTiter-Glo 144 h; type: cell-based, human; details: read-out: CTGlo 144 h UMUC9.5, G150
Procedure, shortened: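 UM-UC-9 engineered assay-ready cells seeded at 500 cells/well in high-glucose DMEM/10% FBS, treated from dose-response plates, grown at 37° C, 5% CO2. CellTiter-Glo 2.0 luminescence read on day 7, with a day-0 pretreatment plate as T0 reference and DMSO wells as negative control.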

Row | AC50 (His6-TEV-PPARγ-(234-505)) | Compound | IC50 (UM-UC-9 engineered cells) | IC50 (UM-UC-9 engineered cells; Homo sapiens, UM-UC-9, 144 h) | AC50 (His6-TEV-PPARγ-(234-505); listed as 114b) | IC50 (UM-UC-9 engineered cells; listed as 114b)
1 | 0.839 µM | COc1cc(-c2cc(C(=O)N3CCC(C(=O)NCc4nccc(C(F)F)n4)CC3)n[nH]2)c(Cl)cn1 [Example 238, 1-(5-(5-chloro-2-methoxypyridin-4-yl)-1H-pyrazole-3-carbonyl)-N-((4-(difluoromethyl)pyrimidin-2-yl)methyl)piperidine-4-carboxamide] |  | 5.16 µM |  | 
2 | 0.0056 µM | COc1cc(-c2cc(C(=O)N3CC[C@H](C(=O)NCc4nnn(C)c4C(F)(F)F)CC34CC4)[nH]n2)c(F)cn1 [Example 508, (S)-4-(3-(5-fluoro-2-methoxypyridin-4-yl)-1H-pyrazole-5-carbonyl)-N-((1-methyl-5-(trifluoromethyl)-1H-1,2,3-triazol-4-yl)methyl)-4-azaspiro[2.5]octane-7-carboxamide] |  | 0.0085 µM |  | 
3 | 0.0726 µM | COc1cc(-c2cc(C(=O)N3CC[C@H](C(=O)NCC45CCC(O)(C4)C5)CC34CC4)n[nH]2)c(F)cn1 [Example 334, (S)-4-(5-(5-fluoro-2-methoxypyridin-4-yl)-1H-pyrazole-3-carbonyl)-N-((4-hydroxybicyclo[2.1.1]hexan-1-yl)methyl)-4-azaspiro[2.5]octane-7-carboxamide] |  | 0.284 µM |  | 
4 | 0.337 µM | COc1cc(-c2cc(C(=O)N3CCC(C(=O)NCc4cn5ccccc5n4)CC3)n[nH]2)c(Cl)cn1 [Example 119, 1-(5-(5-chloro-2-methoxypyridin-4-yl)-1H-pyrazole-3-carbonyl)-N-(imidazo[1,2-a]pyridin-2-ylmethyl)piperidine-4-carboxamide] |  | > 5 µM |  | 
5 | 0.0083 µM | COc1cc(-c2cc(C(=O)N3CC[C@H](C(=O)NCc4cccc(Cl)c4)CC34CC4)n[nH]2)c(Cl)cn1 (single isomer, unassigned) [Example 245-A] |  | 0.0041 µM |  | 
6 | 0.296 µM | COc1cc(-c2cc(C(=O)N3CCC(C(=O)NCC4CCC=CO4)CC3)n[nH]2)c(Cl)cn1 (centres unmarked) [Example 158, 1-(5-(5-chloro-2-methoxypyridin-4-yl)-1H-pyrazole-3-carbonyl)-N-((3,4-dihydro-2H-pyran-2-yl)methyl)piperidine-4-carboxamide] |  | 0.544 µM |  | 
7 | 0.0103 µM | Cc1cc(-c2cc(C(=O)N3CC[C@H](C(=O)NCc4ncccc4C4CC4)CC34CC4)[nH]n2)c(F)cn1 (racemic) [Example 506, (S)—N-((3-cyclopropylpyridin-2-yl)methyl)-4-(3-(5-fluoro-2-methylpyridin-4-yl)-1H-pyrazole-5-carbonyl)-4-azaspiro[2.5]octane-7-carboxamide and (R)—N-((3-cyclopropylpyridin-2-yl)methyl)-4-(3-(5-fluoro-2-methylpyridin-4-yl)-1H-pyrazole-5-carbonyl)-4-azaspiro[2.5]octane-7-carboxamide] |  | 0.0206 µM |  | 
8 | 0.298 µM | COc1cc(-c2cc(C(=O)N3CC[C@H](C(=O)NC4CCC(N)(C(F)(F)F)CC4)CC34CC4)n[nH]2)c(F)cn1 (single isomer, unassigned) [Example 399-A] |  | 0.176 µM |  | 
9 | 0.0096 µM | COc1cc(-c2cc(C(=O)N3CC[C@H](C(=O)NC4CCC5(COC5)c5cccnc54)CC34CC4)n[nH]2)c(F)cn1 (stereo partly drawn) [Example 496, (7S)—N-(7′,8′-dihydro-6′H-spiro[oxetane-3,5′-quinolin]-8′-yl)-4-(5-(5-fluoro-2-methoxypyridin-4-yl)-1H-pyrazole-3-carbonyl)-4-azaspiro[2.5]octane-7-carboxamide] |  | 0.0682 µM |  | 
10 | 0.254 µM | COc1cc(-c2cc(C(=O)N3CCC(C(=O)Nc4cccc(C)n4)CC3)n[nH]2)c(Cl)cn1 [Example 251, 1-(5-(5-chloro-2-methoxypyridin-4-yl)-1H-pyrazole-3-carbonyl)-N-(6-methylpyridin-2-yl)piperidine-4-carboxamide] |  | 1.38 µM |  | 
11 |  | COc1cc(-c2cc(C(=O)N3CCC(C(=O)NC4CCC(C)CC4)CC3)n[nH]2)c(F)cn1 (single isomer, unassigned) [Example 114-B] |  |  | 0.0158 µM | 0.0268 µM
12 | 1.5 µM | COc1cc(-c2cc(C(=O)N3CC[C@H](C(=O)NC4CCC(O)(C(F)(F)F)C(O)C4)CC34CC4)n[nH]2)c(F)cn1 (single isomer, unassigned) [Example 474-E] | 1.93 µM |  |  | 
13 | 0.0508 µM | COc1cc(-c2cc(C(=O)N3CCC(C(=O)NCC4CCn5cncc5C4)CC34CC4)n[nH]2)c(F)cn1 (single isomer, unassigned) [Example 342-A] | 1.21 µM |  |  | 
14 | 0.0131 µM | COc1cc(-c2cc(C(=O)N3CC[C@H](C(=O)NCc4ncc(C(C)(C)O)cc4Cl)CC34CC4)n[nH]2)c(F)cn1 [Example 364, (S)—N-((3-chloro-5-(2-hydroxypropan-2-yl)pyridin-2-yl)methyl)-4-(5-(5-fluoro-2-methoxypyridin-4-yl)-1H-pyrazole-3-carbonyl)-4-azaspiro[2.5]octane-7-carboxamide] |  | 0.0562 µM |  | 
15 | 0.196 µM | COc1cc(-c2cc(C(=O)N3CCC(C(=O)N[C@H]4CCOc5ccc(C#N)cc54)CC3)n[nH]2)c(Cl)cn1 [Example 233, (S)-1-(5-(5-chloro-2-methoxypyridin-4-yl)-1H-pyrazole-3-carbonyl)-N-(6-cyanochroman-4-yl)piperidine-4-carboxamide] |  | 3.43 µM |  | 
16 | 0.927 µM | COc1cc(-c2cc(C(=O)N3CCC(C(=O)NC4CCCc5c4ccc(=O)n5C)CC3)n[nH]2)c(Cl)cn1 (racemic) [Example 234, 1-(5-(5-chloro-2-methoxypyridin-4-yl)-1H-pyrazole-3-carbonyl)-N-(1-methyl-2-oxo-1,2,5,6,7,8-hexahydroquinolin-5-yl)piperidine-4-carboxamide] |  | > 10 µM |  | 
17 | 0.181 µM | COc1cc(-c2cc(C(=O)N3CC[C@H](C(=O)NCc4nnccc4C)CC34CC4)n[nH]2)c(F)cn1 [Example 386, (S)-4-(5-(5-fluoro-2-methoxypyridin-4-yl)-1H-pyrazole-3-carbonyl)-N-((4-methylpyridazin-3-yl)methyl)-4-azaspiro[2.5]octane-7-carboxamide] |  | 0.231 µM |  | 
18 | 0.13 µM | COc1cc(-c2cc(C(=O)N3CCC(C(=O)NCc4cccc(F)c4)CC3)n[nH]2)c(Cl)cn1 [Example 157, 1-(5-(5-chloro-2-methoxypyridin-4-yl)-1H-pyrazole-3-carbonyl)-N-(3-fluorobenzyl)piperidine-4-carboxamide] |  | 0.212 µM |  | 

Row | Compound | AC50 (His6-TEV-PPARγ-(234-505)) | IC50 (UM-UC-9 engineered cells) | IC50 (UM-UC-9 engineered cells; Homo sapiens, UM-UC-9, 144 h) | AC50 (His6-TEV-PPARγ-(234-505); listed as 114b) | IC50 (UM-UC-9 engineered cells; listed as 114b)
19 | COc1cc(-c2cc(C(=O)N3CCC(C(=O)NC(C)C45CCC(O)(CC4)CC5)CC34CC4)n[nH]2)c(F)cn1 (mixture of isomers) [Example 411, (S)-4-(5-(5-fluoro-2-methoxypyridin-4-yl)-1H-pyrazole-3-carbonyl)-N—((R)-1-(4-hydroxybicyclo[2.2.2]octan-1-yl)ethyl)-4-azaspiro[2.5]octane-7-carboxamide and (S)-4-(5-(5-fluoro-2-methoxypyridin-4-yl)-1H-pyrazole-3-carbonyl)-N—((S)-1-(4-hydroxybicyclo[2.2.2]octan-1-yl)ethyl)-4-azaspiro[2.5]octane-7-carboxamide] | 0.0372 µM | 0.0601 µM |  |  | 
20 | COc1cc(-c2cc(C(=O)N3CCC(C(=O)NC4CCC(O)(C(F)(F)F)CC4)CC34CC4)n[nH]2)c(F)cn1 (mixture of isomers) [Example 169, (R)-4-(5-(5-fluoro-2-methoxypyridin-4-yl)-1H-pyrazole-3-carbonyl)-N-((1r,4R)-4-hydroxy-4-(trifluoromethyl)cyclohexyl)-4-azaspiro[2.5]octane-7-carboxamide and (S)-4-(5-(5-fluoro-2-methoxypyridin-4-yl)-1H-pyrazole-3-carbonyl)-N-((1r,4S)-4-hydroxy-4-(trifluoromethyl)cyclohexyl)-4-azaspiro[2.5]octane-7-carboxamide] | 0.0045 µM | 0.0021 µM |  |  | 
21 | COc1cc(-c2cc(C(=O)N3[C@@H]4CC[C@H]3C[C@H](C(=O)N[C@H]3CC[C@](O)(C(F)(F)F)CC3)C4)n[nH]2)c(F)cn1 [Example 170-B, (1R,3s,5S)-8-(5-(5-fluoro-2-methoxypyridin-4-yl)-1H-pyrazole-3-carbonyl)-N-((1s,4S)-4-hydroxy-4-(trifluoromethyl)cyclohexyl)-8-azabicyclo[3.2.1]octane-3-carboxamide] | 1.11 µM |  | 3.56 µM |  | 
22 | COc1cc(-c2cc(C(=O)N3CCC(C(=O)NCc4nccnc4C4CC4CO)CC34CC4)n[nH]2)c(F)cn1 (mixture of isomers) [Example 481, (S)-4-(5-(5-fluoro-2-methoxypyridin-4-yl)-1H-pyrazole-3-carbonyl)-N-((3-((1S,2S)-2-(hydroxymethyl)cyclopropyl)pyrazin-2-yl)methyl)-4-azaspiro[2.5]octane-7-carboxamide and (S)-4-(5-(5-fluoro-2-methoxypyridin-4-yl)-1H-pyrazole-3-carbonyl)-N-((3-((1R,2R)-2-(hydroxymethyl)cyclopropyl)pyrazin-2-yl)methyl)-4-azaspiro[2.5]octane-7-carboxamide] | 0.129 µM | 1.22 µM |  |  | 

— patent US12606541B2, “PPARg modulators and methods of use” (Eisai R&D Management Co., Ltd., priority 2020, dated 2026)
